Test results from PubChem BioAssay AID449762 (Southern Research Specialized Biocontainment Screening …, 2010).
Inconclusive results are not listed.

Tested on: M. tuberculosis H37Rv growth inhibition, 7H9 media
Test: M. tuberculosis growth inhibition, HTS (AID 449762);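 further: bacterial growth assessed after seven days of incubation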
Conditions: not given

SMILES | IC50 [µM]
CCOc1ccc(NC(=O)CSc2nc(O)c(C)c(=O)n2-c2ccc(F)cc2)cc1 | 8.48
COc1ccc(-c2ccc(OC)c([C@H]3[C@@H]4C=CCC[C@@]4(C)C(=O)N3Cc3ccccc3)c2)cc1OC | 13.1
COc1ccc(CNC[C@@H](CCCCN(C)Cc2ccc(OC)cc2)N2C[C@H](c3ccccc3)N(CCc3ccc(Cl)c(Cl)c3)C(=O)C2=O)cc1 | 5.48
Nc1ccc2cc(Br)ccc2c1 | 51.8
COC(OC)c1ccnc(-c2ccc(OC(=O)c3cccs3)cc2)n1 | 62.4
CC1=CC(=O)c2c(O)ccc(O)c2C1=O | 8.02
Cc1cc(OCc2cc(C(=O)N(C)CCc3cnn(C)c3)no2)cc(C)c1Cl | 26.9
CCOC(=O)CSc1nnc(SCCN2C(=O)c3ccccc3C2=O)s1 | 4.3
Cn1cnnc1SCc1ccc(-c2ccc(Br)cc2)o1 | 85.1
CCc1ccc(/C(C)=N/Nc2cc(Cl)nc(C)n2)cc1 | 41.9
CCc1ccc(C2c3[nH]c4ccccc4c3CCN2C(=O)c2ccc(=O)n(C)n2)cc1 (configuration not stated) | 49.6
O=C(C[n+]1ccc(C(=O)c2ccccc2)cc1)Nc1ccc(C(F)(F)F)cc1 | 21.5
Nc1[nH]n2c(=O)cc(-c3ccccc3)nc2c1N=Nc1ccc2c(c1)OCO2 | 23.4
O=[N+]([O-])c1cc([N+](=O)[O-])c2c(=Nc3ccccc3)n(-c3ccccc3)n(O)c2c1 | 6.35
CCC(=O)c1ccc(OCC(=O)OCC(=O)c2cc(C)n(C3CC3)c2C)cc1 | 2.41
CCCCN(C)CCNC(=O)c1ccc(Cn2c(=S)[nH]c3ccc(Br)cc3c2=O)cc1 | 12.2
O=C(Nc1cc(N2CCOCC2)ncn1)NC1(C(F)(F)F)Oc2ccc(Cl)cc2O1 (configuration not stated) | 11.8
CCCCOCCCn1c(-c2ccco2)nc2nc3ccccc3nc21 | 94.9
CN(C)C(=O)c1ccc(NC(=O)COC(=O)c2cc3c(s2)CCCCC3)cc1 | 45.8
CCn1c(=O)c(CCC(=O)N2CCN(c3ccccn3)CC2)c(C)c2c(C)nn(-c3cccc(C)c3)c21 | 19.5

SMILES | IC50 [µM]
CCOc1ccc(NC(=O)c2sc3nc(C)nc(N4CCOCC4)c3c2C)cc1 | 35.6
C=CCOc1ccc(C2C(C#N)=C(N)N(Nc3ccccc3)C3=C2C(=O)CC(C)(C)C3)cc1OC (configuration not stated) | 30.1
CCOC(=O)c1nc2sc3c(c2c(=O)[nH]1)CCC(C)C3 (configuration not stated) | 46.7
C=C1C(=O)[C@@]23[C@H](O)C[C@@H]4C(C)(C)CC[C@H](O)[C@@]4(C)[C@@H]2CC[C@@H]1[C@H]3O | 3.04
Cc1ccc(C)c(N2CCN(C(=S)Nc3ccc4nc(N5CCN(C)CC5)cc(C)c4c3)CC2)c1 | 38.7
COc1cc(CNCCc2ccccc2)cc(Cl)c1OCc1ccccc1 | 22.3
O=C(NCc1nnnn1-c1ccc(F)cc1)c1ccc([N+](=O)[O-])o1 | 16.5
CSc1nsc(SCC(=O)Nc2ccc(F)cc2F)n1 | 19.8
CSc1ncc(C(=O)Nc2ccc(Br)cn2)c(C)n1 | 0.93
COc1ccc(/C=N/Nc2cc(N3CCCC3)nc(N3CCCC3)n2)cc1 | 16.3
COc1ccc(NCc2nnc(SCC(=O)c3ccc(OC)cc3)o2)cc1 | 7.11
O=C(Nc1ccc(Cl)cc1)N1CCN(c2ccc3nnc(-c4ccc(F)cc4)n3n2)CC1 | 13.8
CCCCN(C)C(=O)Cc1c(OC)ccc2cc(Br)ccc12 | 19.5
CNC[C@@H](Cc1ccccc1)NC[C@@H](CC1CCCCC1)NCCCc1ccccc1 | 7.96
CCOC(=O)C1=C(C)NC(SCC(=O)Nc2nc(C)cs2)=C(C#N)C1c1cccs1 (configuration not stated) | 34.4
O=S(=O)(Nc1ccn(-c2ccccc2)n1)c1ccc(Br)cc1 | 95.4
O=C(c1ccc(Br)cc1)C(CN1CCOCC1)c1ccccc1 (configuration not stated) | 4.73
CC1=C(/C=C/C(C)=C/C=C/C(C)=C/C(=O)Nc2ccc(O)cc2)C(C)(C)CCC1 | 41.9
COc1ccc(NC(=O)/C(Cl)=C(/Cl)S(=O)Cc2ccc(C)cc2)cn1 (configuration not stated) | < 0.2
CC(C)(C)C(=O)N1CCN(c2ccc(NC(=O)c3ccc([N+](=O)[O-])o3)cc2)CC1 | < 0.2

SMILES | IC50 [µM]
O=C(CSc1cccc[n+]1[O-])c1cccs1 | 12
Cc1ccc(S(=O)(=O)Nc2cccc3ncccc23)s1 | < 0.2
COc1cccc2sc3ccc(C#CC4(N)CCCCC4)cc3c(=O)c12 | 61.6
Cc1ccc2c(c1)C1C[N+](C)(CC(=O)c3ccc(Cl)cc3Cl)CCC1N2C(=O)c1ccc(F)cc1 (configuration not stated) | 23.9
CCOC(=O)C1CCCc2c1[nH]c1c(C(N)=O)cccc21 (configuration not stated) | 4.13
Cc1oc(C(=O)Nc2ccc(O)cc2)cc1COc1ccccc1 | 12.5
Fc1nc(F)c(F)c(NCCCNc2c(F)c(F)nc(F)c2F)c1F | 37.7
Cc1ccc(C2=NCCn3c2c2ccccc2[n+]3[O-])cc1 | 22.6
CCN(CC(=O)NCc1cccs1)C(=O)c1ccc([N+](=O)[O-])o1 | 19
CNC(CC(=O)c1ccc([N+](=O)[O-])cc1)C(Cl)(Cl)Cl (configuration not stated) | 2.26
Cc1cccc(-c2oc3ccc(-c4ccc5c(c4)OCO5)cc3c2C#Cc2cncn2C)c1 | 2.9
FC(F)(F)c1ccc(Nc2nnnc3ccccc23)cc1 | 90.2
COc1ccc(-c2c(C#Cc3ccsc3)c3ccccc3n2C)cc1 | 25.5
CCCCC(O)(CCCC)C(=O)NN(C(=O)CCl)c1ccccc1 | 3.9
C=CCN(CC=C)C(=S)NC(=O)c1ccc(-c2ccccc2)cc1 | 10.8
O=C1c2ccccc2CC1Sc1nnc(-c2ccncc2)o1 (configuration not stated) | 20.6
CCCCSCCCNC(=O)c1cn(CC)c2ccc(S(=O)(=O)N3CCOCC3)cc2c1=O | 23.7
O=C(NCCc1ccccc1)[C@@H]1CC=C[C@@H]2CCN(Cc3ccc(Cl)c(Cl)c3)C(=O)[C@@H]21 | 51.3
COC(=O)CSc1nnc(-c2sc3cc(OC)ccc3c2Cl)n1C | 9.08
CCOc1cccc(/C=C/c2ccc3cccc(O)c3n2)c1O | 1.38

Same assay, conditions: measured here: IC90 growth inhibition

SMILES | IC90 [µM]
CCOc1ccc(NC(=O)CSc2nc(O)c(C)c(=O)n2-c2ccc(F)cc2)cc1 | 20.3
C/C(=N\NC(=O)c1cc2c(s1)CCC(C)C2)c1ccncc1 (configuration not stated) | > 100
COc1ccc(-c2ccc(OC)c([C@H]3[C@@H]4C=CCC[C@@]4(C)C(=O)N3Cc3ccccc3)c2)cc1OC | 24.8
COc1ccc(CNC[C@@H](CCCCN(C)Cc2ccc(OC)cc2)N2C[C@H](c3ccccc3)N(CCc3ccc(Cl)c(Cl)c3)C(=O)C2=O)cc1 | 8.71
Nc1ccc2cc(Br)ccc2c1 | 84.9
COC(OC)c1ccnc(-c2ccc(OC(=O)c3cccs3)cc2)n1 | > 100
CC1=CC(=O)c2c(O)ccc(O)c2C1=O | 12.2
Cc1cc(OCc2cc(C(=O)N(C)CCc3cnn(C)c3)no2)cc(C)c1Cl | 51.4
CCOC(=O)CSc1nnc(SCCN2C(=O)c3ccccc3C2=O)s1 | 30
Cn1cnnc1SCc1ccc(-c2ccc(Br)cc2)o1 | > 100
CCc1ccc(/C(C)=N/Nc2cc(Cl)nc(C)n2)cc1 | 99
CCc1ccc(C2c3[nH]c4ccccc4c3CCN2C(=O)c2ccc(=O)n(C)n2)cc1 (configuration not stated) | 74.3
O=C(C[n+]1ccc(C(=O)c2ccccc2)cc1)Nc1ccc(C(F)(F)F)cc1 | 23.7
Nc1[nH]n2c(=O)cc(-c3ccccc3)nc2c1N=Nc1ccc2c(c1)OCO2 | 26.6
O=[N+]([O-])c1cc([N+](=O)[O-])c2c(=Nc3ccccc3)n(-c3ccccc3)n(O)c2c1 | 9.25
CCC(=O)c1ccc(OCC(=O)OCC(=O)c2cc(C)n(C3CC3)c2C)cc1 | 74.8
CCCCN(C)CCNC(=O)c1ccc(Cn2c(=S)[nH]c3ccc(Br)cc3c2=O)cc1 | 20
O=C(Nc1cc(N2CCOCC2)ncn1)NC1(C(F)(F)F)Oc2ccc(Cl)cc2O1 (configuration not stated) | 18.9
CCCCOCCCn1c(-c2ccco2)nc2nc3ccccc3nc21 | > 100
CN(C)C(=O)c1ccc(NC(=O)COC(=O)c2cc3c(s2)CCCCC3)cc1 | > 100
CCn1c(=O)c(CCC(=O)N2CCN(c3ccccn3)CC2)c(C)c2c(C)nn(-c3cccc(C)c3)c21 | 27.5

SMILES | IC90 [µM]
CCOc1ccc(NC(=O)c2sc3nc(C)nc(N4CCOCC4)c3c2C)cc1 | 61.3
C=CCOc1ccc(C2C(C#N)=C(N)N(Nc3ccccc3)C3=C2C(=O)CC(C)(C)C3)cc1OC (configuration not stated) | 68.2
CCOC(=O)c1nc2sc3c(c2c(=O)[nH]1)CCC(C)C3 (configuration not stated) | > 100
C=C1C(=O)[C@@]23[C@H](O)C[C@@H]4C(C)(C)CC[C@H](O)[C@@]4(C)[C@@H]2CC[C@@H]1[C@H]3O | 4.05
COc1ccccc1/C=C/C1=NC(=C\C=C/c2ccccc2)/C(=O)O1 | > 100
Cc1ccc(C)c(N2CCN(C(=S)Nc3ccc4nc(N5CCN(C)CC5)cc(C)c4c3)CC2)c1 | 50.9
COc1cc(CNCCc2ccccc2)cc(Cl)c1OCc1ccccc1 | 24.9
O=C(NCc1nnnn1-c1ccc(F)cc1)c1ccc([N+](=O)[O-])o1 | 74.1
CSc1nsc(SCC(=O)Nc2ccc(F)cc2F)n1 | 63.4
CSc1ncc(C(=O)Nc2ccc(Br)cn2)c(C)n1 | 3.9
COc1ccc(/C=N/Nc2cc(N3CCCC3)nc(N3CCCC3)n2)cc1 | 25
COc1ccc(NCc2nnc(SCC(=O)c3ccc(OC)cc3)o2)cc1 | 13.4
O=C(Nc1ccc(Cl)cc1)N1CCN(c2ccc3nnc(-c4ccc(F)cc4)n3n2)CC1 | 26.4
CCCCN(C)C(=O)Cc1c(OC)ccc2cc(Br)ccc12 | 29.2
CNC[C@@H](Cc1ccccc1)NC[C@@H](CC1CCCCC1)NCCCc1ccccc1 | 9.49
CCOC(=O)C1=C(C)NC(SCC(=O)Nc2nc(C)cs2)=C(C#N)C1c1cccs1 (configuration not stated) | 48.7
O=S(=O)(Nc1ccn(-c2ccccc2)n1)c1ccc(Br)cc1 | > 100
O=C(c1ccc(Br)cc1)C(CN1CCOCC1)c1ccccc1 (configuration not stated) | 9.41
CC1=C(/C=C/C(C)=C/C=C/C(C)=C/C(=O)Nc2ccc(O)cc2)C(C)(C)CCC1 | 59.8
COc1ccc(NC(=O)/C(Cl)=C(/Cl)S(=O)Cc2ccc(C)cc2)cn1 (configuration not stated) | < 0.2
CC(C)(C)C(=O)N1CCN(c2ccc(NC(=O)c3ccc([N+](=O)[O-])o3)cc2)CC1 | < 0.2

SMILES | IC90 [µM]
O=C(CSc1cccc[n+]1[O-])c1cccs1 | 16.5
Cc1ccc(S(=O)(=O)Nc2cccc3ncccc23)s1 | 3.93
COc1cccc2sc3ccc(C#CC4(N)CCCCC4)cc3c(=O)c12 | 82.2
Cc1ccc2c(c1)C1C[N+](C)(CC(=O)c3ccc(Cl)cc3Cl)CCC1N2C(=O)c1ccc(F)cc1 (configuration not stated) | 27.1
CCOC(=O)C1CCCc2c1[nH]c1c(C(N)=O)cccc21 (configuration not stated) | 13.2
Cc1oc(C(=O)Nc2ccc(O)cc2)cc1COc1ccccc1 | 43.6
Fc1nc(F)c(F)c(NCCCNc2c(F)c(F)nc(F)c2F)c1F | > 100
Cc1ccc(C2=NCCn3c2c2ccccc2[n+]3[O-])cc1 | 38.9
CCN(CC(=O)NCc1cccs1)C(=O)c1ccc([N+](=O)[O-])o1 | 58.3
CNC(CC(=O)c1ccc([N+](=O)[O-])cc1)C(Cl)(Cl)Cl (configuration not stated) | 5.81
Cc1cccc(-c2oc3ccc(-c4ccc5c(c4)OCO5)cc3c2C#Cc2cncn2C)c1 | 3.36
FC(F)(F)c1ccc(Nc2nnnc3ccccc23)cc1 | 99.6
COc1ccc(-c2c(C#Cc3ccsc3)c3ccccc3n2C)cc1 | 37.8
CCCCC(O)(CCCC)C(=O)NN(C(=O)CCl)c1ccccc1 | 10.5
C=CCN(CC=C)C(=S)NC(=O)c1ccc(-c2ccccc2)cc1 | 14.1
O=C1c2ccccc2CC1Sc1nnc(-c2ccncc2)o1 (configuration not stated) | 30
CCCCSCCCNC(=O)c1cn(CC)c2ccc(S(=O)(=O)N3CCOCC3)cc2c1=O | 44.9
O=C(NCCc1ccccc1)[C@@H]1CC=C[C@@H]2CCN(Cc3ccc(Cl)c(Cl)c3)C(=O)[C@@H]21 | 79.1
COC(=O)CSc1nnc(-c2sc3cc(OC)ccc3c2Cl)n1C | > 100
CCOc1cccc(/C=C/c2ccc3cccc(O)c3n2)c1O | 18.5
